How the values were obtained:
NAMPT G217V = target: T1, NAMPT G217V (Homo sapiens, UniProt P43490, G217V); assay: NAMPT enzymatic inhibition, G217V mutant protein; details: purified G217V NAMPT 30 nM; 1 µM NAM, 100 µM PRPP, 2.5 mM ATP; read-out: Biochemical IC50, G217V
T1 construct: An expression construct for full length human (XP_540386) NAMPT was constructed using pET21B; His6 (C); made in house; host or cells: E. coli Rosetta (DE3)

NAMPT G217R = target: T2, NAMPT G217R (Homo sapiens, UniProt P43490, G217R); assay: NAMPT enzymatic inhibition, G217R mutant protein; details: purified G217R NAMPT 30 nM; 1 µM NAM, 100 µM PRPP, 2.5 mM ATP; read-out: Biochemical IC50, G217R
T2 construct: An expression construct for full length human (XP_540386) NAMPT was constructed using pET21B; His6 (C); made in house; host or cells: E. coli Rosetta (DE3)

NAMPT S165F = target: T3, NAMPT S165F (Homo sapiens, UniProt P43490, S165F); assay: NAMPT enzymatic inhibition, S165F mutant protein; details: purified S165F NAMPT 30 nM; 1 µM NAM, 100 µM PRPP, 2.5 mM ATP; read-out: Biochemical IC50, S165F
T3 construct: An expression construct for full length human (XP_540386) NAMPT was constructed using pET21B; His6 (C); made in house; host or cells: E. coli Rosetta (DE3)

NAMPT H191R = target: T4, NAMPT H191R (Homo sapiens, UniProt P43490, H191R); assay: NAMPT enzymatic inhibition, H191R mutant protein; details: purified H191R NAMPT 30 nM; 1 µM NAM, 100 µM PRPP, 2.5 mM ATP; read-out: Biochemical IC50, H191R
T4 construct: An expression construct for full length human (XP_540386) NAMPT was constructed using pET21B; His6 (C); made in house; host or cells: E. coli Rosetta (DE3)

NAMPT G217A = target: T5, NAMPT G217A (Homo sapiens, UniProt P43490, G217A); assay: NAMPT enzymatic inhibition, G217A mutant protein; details: purified G217A NAMPT 30 nM; 1 µM NAM, 100 µM PRPP, 2.5 mM ATP; read-out: Biochemical IC50, G217A
T5 construct: An expression construct for full length human (XP_540386) NAMPT was constructed using pET21B; His6 (C); made in house; host or cells: E. coli Rosetta (DE3)

NAMPT S165Y = target: T6, NAMPT S165Y (Homo sapiens, UniProt P43490, S165Y); assay: NAMPT enzymatic inhibition, S165Y mutant protein; details: purified S165Y NAMPT 50 nM; 1 µM NAM, 100 µM PRPP, 2.5 mM ATP; read-out: Biochemical IC50, S165Y
T6 construct: An expression construct for full length human (XP_540386) NAMPT was constructed using pET21B; His6 (C); made in house; host or cells: E. coli Rosetta (DE3)

WT NAMPT = target: T7, WT NAMPT (Homo sapiens, UniProt P43490); assay: NAMPT enzymatic inhibition, wild-type protein (RapidFire/MS detection of NMN); details: purified wild-type NAMPT 30 nM; 1 µM NAM, 100 µM PRPP, 2.5 mM ATP; read-out: Biochemical IC50, WT
T7 construct: An expression construct for full length human (XP_540386) NAMPT was constructed using pET21B; His6 (C); made in house; host or cells: E. coli Rosetta (DE3)

[1] = system: 293T cells expressing NAMPT S165Y; assay: Response of 293T cells expressing NAMPT S165Y; type: cell-based; details: NAMPT S165Y expressed in 293T cells
[2] = system: 293T cells expressing NAMPT S165F; assay: Response of 293T cells expressing NAMPT S165F; type: cell-based; details: NAMPT S165F expressed in 293T cells
NCI-H520 cell line = assay: Cellular IC50 in parental NCI-H520 cell line; type: cell-based; details: Homo sapiens, read-out: Parental GNE-618 IC50, NAPRT1 positive
NCI-H460 cell line = assay: Cellular IC50 in parental NCI-H460 cell line; type: cell-based; details: Homo sapiens, read-out: Parental GNE-618 IC50, NAPRT1 negative
[3] = Tolerability in xenograft-bearing mice; type: in vivo; details: doses tested in NCI-H460 parental and S165Y mutant models, oral QD 7 days
[4] = system: GNE-618 resistant cell lines harboring mutations other than D93del only or S165Y; assay: Cellular IC50 shift, resistant cell lines harboring the other mutations; type: cell-based; details: cell lines harboring the other mutations (not D93del only or S165Y)
[5] = system: NCI-H460 tumor xenografts; assay: NCI-H460 parental xenograft efficacy; type: in vivo, mice; details: 100 mg/kg, oral, QD for 7 days, p = 0.007 vs. vehicle
[6] = system: RD cell line with the S165F mutation; details: RD parent and S165F resistant line, ± 10 µM nicotinic acid
[7] = system: NCI-H460 S165Y tumor xenografts; assay: NCI-H460 S165Y mutant xenograft efficacy; details: oral QD, also at higher doses
RD cell line = assay: Cellular IC50 in parental RD cell line; type: cell-based; details: Homo sapiens, read-out: Parental GNE-618 IC50, NAPRT1 negative
[8] = system: RD cell line harboring only the D93 deletion; assay: Cellular IC50 shift, RD resistant line (earlier passage) with D93 deletion only; type: cell-based; details: cell line carrying D93del
Mia-Paca2 cell line = assay: Cellular IC50 in parental Mia-Paca2 cell line; type: cell-based; details: Homo sapiens, MIA PaCa-2, read-out: Parental GNE-618 IC50, NAPRT1 negative
[9] = system: GNE-618 resistant cell lines; assay: Total cellular NAD in GNE-618 resistant cell lines; type: cell-based; details: after GNE-618 at 100-fold the parental line IC50; all resistant lines except those harboring only D93del or S165Y
[10] = system: cell lines carrying S165Y (NCI-H460); assay: Cellular IC50 shift, resistant cell line carrying S165Y; type: cell-based

T3 sequence (P43490 whole entry S165F): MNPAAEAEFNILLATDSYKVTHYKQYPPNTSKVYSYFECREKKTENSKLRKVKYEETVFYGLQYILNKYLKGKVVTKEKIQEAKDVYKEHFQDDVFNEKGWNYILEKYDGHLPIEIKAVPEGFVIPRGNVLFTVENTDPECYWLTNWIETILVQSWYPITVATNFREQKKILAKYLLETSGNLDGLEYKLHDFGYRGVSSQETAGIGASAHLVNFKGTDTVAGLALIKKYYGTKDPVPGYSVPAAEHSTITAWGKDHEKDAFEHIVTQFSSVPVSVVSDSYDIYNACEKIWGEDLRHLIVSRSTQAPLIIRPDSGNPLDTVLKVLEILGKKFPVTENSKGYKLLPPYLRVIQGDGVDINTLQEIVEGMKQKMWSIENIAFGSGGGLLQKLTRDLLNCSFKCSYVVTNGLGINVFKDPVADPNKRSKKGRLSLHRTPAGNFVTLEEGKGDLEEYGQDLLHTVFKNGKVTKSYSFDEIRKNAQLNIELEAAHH
T2 sequence (P43490 whole entry G217R): as the sequence (P43490 whole entry S165F) above, with F165S, G217R counted along it
T5 sequence (P43490 whole entry G217A): as the sequence (P43490 whole entry S165F) above, with F165S, G217A counted along it
T4 sequence (P43490 whole entry H191R): as the sequence (P43490 whole entry S165F) above, with F165S, H191R counted along it
T7 sequence (P43490 whole entry): as the sequence (P43490 whole entry S165F) above, with F165S counted along it
T1 sequence (P43490 whole entry G217V): as the sequence (P43490 whole entry S165F) above, with F165S, G217V counted along it
T6 sequence (P43490 whole entry S165Y): as the sequence (P43490 whole entry S165F) above, with F165Y counted along it

IC50 (NAMPT G217V) [nM]	IC50 (NAMPT G217R) [nM]	IC50 (NAMPT S165F) [nM]	IC50 (NAMPT H191R) [nM]	IC50 (NAMPT G217A) [nM]	IC50 (NAMPT S165Y) [nM]	IC50 (WT NAMPT) [nM]	SMILES	Sensitivity compared to wild-type NAMPT expression [1]	Sensitivity compared to wild-type NAMPT expression [2]	further results
> 5000	> 5000	175	> 5000	> 5000	148	26	O=C(NCc1ccc(S(=O)(=O)c2ccc(N3CCOCC3)nc2)cc1)c1cnc2[nH]ncc2c1 [compound 6]	–	–	–
4160	> 5000	1930	> 5000	> 5000	2530	80	O=C(NCc1ccc(S(=O)(=O)c2ccccc2)cc1)c1cnc2[nH]ncc2c1 [compound 4]	–	–	–
–	–	–	–	–	–	–	N#CN=C(NCCCCCCOc1ccc(Cl)cc1)Nc1ccncc1 [compound 9]	more modest	more modest	–
–	–	–	–	–	–	–	O=C(NCc1ccc(S(=O)(=O)c2cccc(C(F)(F)F)c2)cc1)c1cnc2[nH]ncc2c1 [compound 1]	diminished sensitivity	diminished sensitivity	IC50 (NCI-H520 cell line): 9 ± 0.4 nM; IC50 (NCI-H460 cell line): 197 ± 6 nM; Tolerability (weight loss, morbidity, mortality) [3]: well tolerated; Increase in IC50 vs parental [4]: ≥ 100 fold; Tumor growth inhibition [5]: 54%; IC50 in the presence or absence of 10 µM NA [6]: not significantly different; Response of tumor xenografts to treatment [7]: completely resistant; IC50 (RD cell line): 2 ± 0.2 nM; Shift in IC50 vs parental [8]: less than 100 fold; IC50 (Mia-Paca2 cell line): 34 ± 2 nM; Reduction of cellular NAD [9]: less than 90%; Shift in IC50 vs parental [10]: less than 100 fold
> 5000	> 5000	15	2170	191	21	5	O=C(NCc1ccc(S(=O)(=O)c2cccc(C(F)(F)F)c2)cc1)c1cc2cnccc2s1 [compound 2]	–	–	–
–	–	–	–	–	–	–	O=C(/C=C/c1cccnc1)NCCCCC1CCN(C(=O)c2ccccc2)CC1 [compound 11]	more modest	more modest	–
3380	> 5000	42	> 5000	2050	115	7	CCN(C)c1ncc(S(=O)(=O)c2ccc(CNC(=O)c3cnc4[nH]ncc4c3)cc2)s1 [compound 7]	–	–	–

— publication PMC4186856, “Structural Basis for Resistance to Diverse Classes of NAMPT Inhibitors” (PLoS ONE, 2014)
